US20260284100A1, “USE OF SULFATED GLUCO-GALACTOOLIGOSACCHARIDE IN PREPARATION OF DRUGS FOR TREATING ATOPIC DERMATITIS” (Nanjing University of Science and Technology, priority 2025, published 2026)

Key:
TSLP = assay: qRT-PCR of TSLP mRNA in ear and dorsal skin of DNCB-induced AD mice; assay type: in vivo, mouse (female BALB/c); settings: dorsal and ear skin tissues; 5 and 20 g/L topical, compared with DNCB group
Protocol: (§1) Female BALB/c mice (6-8 weeks old) provided by the Comparative Medicine Center of Yangzhou University were used in the experiment. All mice were housed under standard feeding conditions with a 12-hour light-dark cycle, and food and water were freely accessible to them. To establish the atopic dermatitis mouse model, the hair on the back of the mice was removed using a shaver and depilatory cream on Day 0 of the experiment. On Day 1 of the experiment, 100 μL of 20 g/L DNCB was applied to the back and 10 μL to the ear of each mouse to induce atopic dermatitis. On Day 5, 8 and 11 of the experiment, 100 μL of 5 g/L DNCB was applied to the back, 10 μL to the ear of each mouse every morning to challenge atopic dermatitis. The mice were euthanized 24 hours after the final challenge. […]
(§2) After all the mice were euthanized, an appropriate amount of ear and dorsal skin tissues was harvested. […] Real-time fluorescent quantitative PCR (qRT-PCR) was performed to specifically detect the expression of IL-1β, IL-4, IL-8 and TSLP.

[1] = test system: HaCaT cells stimulated by TNF-α/IFN-γ; assay: mRNA expression of inflammatory cytokines in HaCaT cells stimulated by TNF-α/IFN-γ; assay type: cell-based, human; settings: TNF-α/IFN-γ 10 ng/ml 18 h, then 100 or 200 μg/mL for 6 h
Protocol: HaCaT cells were used in the experiment, and their culture was carried out in high-glucose DMEM medium containing 10% fetal bovine serum, 1% streptomycin, and 1% erythromycin. The cells were incubated in a carbon dioxide incubator at 37° C. and passaged using trypsin digestion.
• 1) HaCaT cells were uniformly seeded in 6-well plates at a density of 5×10^5 cells per well. Control group and experimental groups were set up, namely the Ctrl group, TNF-α+IFN-γ group, LSRO+TNF-α+IFN-γ group and HSRO+TNF-α+IFN-γ group. • 2) TNF-α/IFN-γ (10 ng/ml) was added to the TNF-α+IFN-γ, LSRO+TNF-α+IFN-γ and HSRO+TNF-α+IFN-γ groups, respectively, while an equal volume of PBS solution (pH=7.2) was added to the Ctrl group. The plates were shaken crosswise to mix thoroughly, followed by incubation at 37° C. for 18 h in a carbon dioxide incubator. • 3) PBS, PBS, 100 μg/mL and 200 μg/mL sulfated gluco-galactooligosaccharide were added to the Ctrl, TNF-α+IFN-γ, LSRO+TNF-α+IFN-γ and HSRO+TNF-α+IFN-γ groups, respectively. The 6-well plates were placed in a carbon dioxide incubator at 37° C., and the cells were harvested after 6 h of incubation.
HaCaT cells were harvested, followed by RNA extraction and reverse transcription into cDNA. The expression levels of related genes such as IL-4, IL-6 and TNF-α were detected via fluorescent quantitative PCR. […]

IL-4 [2] = assay: qRT-PCR of IL-4 mRNA in ear and dorsal skin of DNCB-induced AD mice; assay type: in vivo, mouse (female BALB/c); settings: dorsal and ear skin tissues; 5 and 20 g/L topical, compared with DNCB group
Protocol: as §1, §2

IL-4 [3] = assay: Determination of IL-4 in serum (ELISA) of DNCB-induced AD mice; assay type: in vivo, mouse (female BALB/c); settings: DNCB group 253.5
Protocol: as §1
(§3) Before euthanasia, the mice were anesthetized, and blood samples were collected from the orbit. The blood samples of the mice in each group were analyzed using a fully automatic hematology analyzer. […] The levels of IgE and IL-4 were measured using a double-antibody sandwich enzyme-linked immunosorbent assay, according to the manufacturer's instructions.

DNCB-induced AD mice [4] = assay: Skin histology, H&E staining, in DNCB-induced AD mice; assay type: in vivo, mouse (female BALB/c); settings: treatment groups (5 and 20 g/L topical) compared with DNCB group
Protocol: as §1

DNCB-induced AD mice [5] = assay: Ear and dorsal skin thickness in DNCB-induced AD mice; assay type: in vivo, mouse (female BALB/c); settings: for average ear skin thickness: DNCB group 0.44; for average dorsal skin thickness: DNCB group 785
Protocol: (§4) Female BALB/c mice (6-8 weeks old) provided by the Comparative Medicine Center of Yangzhou University were used in the experiment. All mice were housed under standard feeding conditions with a 12-hour light-dark cycle, and food and water were freely accessible to them. To establish the atopic dermatitis mouse model, the hair on the back of the mice was removed using a shaver and depilatory cream on Day 0 of the experiment. On Day 1 of the experiment, 100 μL of 20 g/L DNCB was applied to the back and 10 μL to the ear of each mouse to induce atopic dermatitis. On Day 5, 8 and 11 of the experiment, 100 μL of 5 g/L DNCB was applied to the back, 10 μL to the ear of each mouse every morning to challenge atopic dermatitis. The mice were euthanized 24 hours after the final challenge.
(§5) 5 days after the establishment of the atopic dermatitis model, the mice were randomly divided into 4 groups (6 mice per group): a) normal control group (Ctrl group); b) model group (DNCB group), where 100 μL of normal saline was applied to the back and 10 μL to the ear of each mouse every day; c) low-dose group (DNCB+LSRO group), where 100 μL of 5 g/L aqueous solution of sulfated gluco-galactooligosaccharide was applied to the back of each mouse every day, and 10 μL of 5 g/L aqueous solution of sulfated gluco-galactooligosaccharide was applied to the ear of each mouse every day; and d) high-dose group (DNCB+HSRO group), where 100 μL of 20 g/L aqueous solution of sulfated gluco-galactooligosaccharide was applied to the back of each mouse every day, and 10 μL of 20 g/L aqueous solution of sulfated gluco-galactooligosaccharide was applied to the ear of each mouse every day. The skin condition of the mice was recorded daily.
The ear thickness was accurately measured every day using an electronic caliper. Before the mice were euthanized, the thickness of the dorsal skin was measured with a caliper. Three measurements were taken at different positions on the mid-back, near the neck, and near the tail, and the average value was taken as the final measurement result.

[6] = prior studies by the inventors (Carbohydrate Polymers 2025, 347:122782; CN 114533756 A); cited from earlier work
[7] = Body weight in DNCB-induced AD mice; assay type: in vivo, mouse (female BALB/c); settings: different-dose treatment groups (5 and 20 g/L topical); DNCB group decreased significantly
Protocol: as §1
(§6) The skin of the mice was photographed at the same time every day to record the skin condition, and the body weight of the mice was measured.

IgE = assay: Determination of IgE in serum (ELISA) of DNCB-induced AD mice; assay type: in vivo, mouse (female BALB/c); settings: DNCB group 12.65
Protocol: as §1, §3

DNCB-induced AD mice [8] = assay: Scratching behavior test in DNCB-induced AD mice; assay type: in vivo, mouse (female BALB/c); settings: DNCB group 107
Protocol: as §1
Prior to the start of the experiment, the mice were allowed to acclimatize to the cages for 1 hour to ensure they could relax and display normal behavioral patterns. During this period, the behavior of the mice scratching the skin of their neck, ears and back with their paws was closely observed and recorded.

DNCB-induced AD mice [9] = assay: Weight of spleens and lymph nodes in DNCB-induced AD mice; assay type: in vivo, mouse (female BALB/c); settings: for average weight of the lymph nodes: DNCB group 16.4; for average weight of the spleen: DNCB group 221
Protocol: as §4, §5
After the mice were euthanized, the spleens and lymph nodes of the mice in each group were harvested and weighed.

DNCB-induced AD mice [10] = assay: Dorsal skin inflammatory lesions (daily photographs) in DNCB-induced AD mice; assay type: in vivo, mouse (female BALB/c); settings: treatment groups (5 and 20 g/L topical) compared with DNCB group
Protocol: as §1, §6

[11] = test system: mast cells in skin tissues; assay: Skin histology, toluidine blue (TBO) staining, mast cell number; assay type: in vivo, mouse (female BALB/c); settings: dorsal skin, DNCB group 56
Protocol: as §1

IL-8 = assay: qRT-PCR of IL-8 mRNA in ear and dorsal skin of DNCB-induced AD mice; assay type: in vivo, mouse (female BALB/c); settings: dorsal and ear skin tissues; 5 and 20 g/L topical, compared with DNCB group
Protocol: as §1, §2

IL-1β = assay: qRT-PCR of IL-1β mRNA in ear and dorsal skin of DNCB-induced AD mice; assay type: in vivo, mouse (female BALB/c); settings: dorsal and ear skin tissues; 5 and 20 g/L topical, compared with DNCB group
Protocol: as §1, §2

[12] = DNCB+HSRO group, 20 g/L topical daily
[13] = DNCB+LSRO group, 5 g/L topical daily

sulfated gluco-galactooligosaccharide
mRNA level of TSLP (TSLP): significantly decreased in a dose-dependent manner
mRNA expression of inflammatory cytokines (IL-4, IL-6, TNF-α) [1]: significantly inhibit the elevation of inflammatory cytokines induced by TNF-α/IFN-γ
mRNA level of IL-4 (IL-4 [2]): significantly decreased in a dose-dependent manner
average level of IL-4 in serum (IL-4 [3]; [12]): 201 pg/mL
average level of IL-4 in serum (IL-4 [3]; [13]): 232 pg/mL
H&E staining of ear and dorsal skin (epidermal hyperplasia, hyperkeratosis, inflammatory cell infiltration) (DNCB-induced AD mice [4]): maintained the skin structure integrity, alleviated skin lesions and protected skin tissues from damage
average ear skin thickness (DNCB-induced AD mice [5]; [12]): 0.33 mm
average dorsal skin thickness (DNCB-induced AD mice [5]; [12]): 545 μm
average ear skin thickness (DNCB-induced AD mice [5]; [13]): 0.375 mm
average dorsal skin thickness (DNCB-induced AD mice [5]; [13]): 606 μm
anticoagulant activity [6]: has anticoagulant activity
DNCB-induced weight loss (body weight) [7]: not obvious
average level of IgE in serum (IgE; [12]): 10.01 µg/mL
average level of IgE in serum (IgE; [13]): 10.45 µg/mL
average scratching frequency (DNCB-induced AD mice [8]; DNCB+HSRO group, 20 g/L aqueous solution topical daily (100 μL back, 10 μL ear)): 58 times
average scratching frequency (DNCB-induced AD mice [8]; DNCB+LSRO group, 5 g/L aqueous solution topical daily (100 μL back, 10 μL ear)): 76 times
average weight of the lymph nodes (DNCB-induced AD mice [9]; [12]): 9.45 mg
average weight of the spleen (DNCB-induced AD mice [9]; [12]): 165 mg
average weight of the lymph nodes (DNCB-induced AD mice [9]; [13]): 10.3 mg
average weight of the spleen (DNCB-induced AD mice [9]; [13]): 183 mg
dorsal skin inflammatory lesions (dryness, erythema, erosion, edema) (DNCB-induced AD mice [10]): effectively alleviated these symptoms
average number of mast cells [11, 12]: 26
average number of mast cells [11, 13]: 32
mRNA level of IL-8 (IL-8): significantly decreased in a dose-dependent manner
mRNA level of IL-1β (IL-1β): significantly decreased in a dose-dependent manner
